From US11040958B2, “Triazole antimicrobial derivative, pharmaceutical composition and use thereof” (priority 2017, dated 2021)
Read-outs that look alike come from different tables or passages of the source.

Legend:
[1] = In vitro metabolic stability in human intestinal S9; type: in vitro ADME; settings: 37°C, S9 1 mg/mL, compound 10 μM, NADPH regeneration system
Procedure: (§1) The two reaction systems were set up three samples in parallel, while each sample was taken in an amount of 100 μL at 1 min, 2 mins, 5 mins, 15 mins, and 30 mins after the reaction, added to the centrifuge tube containing 400 μL of 0° C. pre-cooled internal standard working fluid and terminated the reaction. The sample was mixed by vortex for 1 min, centrifuged at 10,000×g for 10 mins in a 4° C. pre-cooled high-speed centrifuge. The supernatant was taken for HPLC detection. […] Concentration of mother liquor of compounds: 1 mM […] [table]

[2] = In vitro metabolic stability in rat plasma; type: in vitro ADME; settings: 37°C, compound 10 μM
Procedure: The two reaction systems were set up three samples in parallel, while each sample was taken in an amount of 100 μL at 1 min, 2 mins, 5 mins, 15 mins, and 30 mins after the reaction, added to the centrifuge tube containing 400 μL of 0° C. pre-cooled internal standard working fluid and terminated the reaction. The sample was mixed by vortex for 1 min, centrifuged at 10,000×g for 10 mins in a 4° C. pre-cooled high-speed centrifuge. The supernatant was taken for HPLC detection. […] Concentration of mother liquor of compounds: 1 mM […]

[3] = In vitro metabolic stability in rat intestinal S9; type: in vitro ADME; settings: 37°C, S9 1 mg/mL, compound 10 μM, NADPH regeneration system
Procedure: as §1

[4] = Solubility test in deionized water (HPLC, external calibration); type: physicochemical; settings: for solubility at 30 min: 25 °C, thermodynamic from solid
Procedure: Experimental condition: 25±2° C.
Dissolving medium: deionized water
Experimental method: 1 mg voriconazole and appropriate amount of each compound were weighed, placed in 1 ml deionized water separately, shaken vigorously for 30 s every 5 mins for 30 mins.

[5] = Pharmacokinetics after single intravenous administration in rats (plasma voriconazole); settings: rat, in vivo, 2.5 mg/kg
Procedure: Dosage for administration: 2.5 mg/kg (calculated as voriconazole)
Dosing volume for administration: 2.5 ml/kg
Drug concentration: 1 mg/mL (calculated as voriconazole)
Route of administration: tail vein injection Experimental animals: SD rats, SPF grade, weighing 180-220 g, half male and half female; the SD rats were randomized into groups of 6 animals each, three males and three females in each group. Experimental method: Blood samples were collected at different time points after tail vein administration, and the plasma concentrations of voriconazole were measured.

[6] = system: Candida albicans ATCC10231; experiment: Systemic fungal infection in mice, intravenous administration, survival; type: in vivo; settings: ICR mice, tail vein, 5 mg/kg (calculated as voriconazole) once daily for 5 days
Procedure: (§2) ICR mice, weighing 18-22 g, male, provided by the Hubei Experimental Animal Center.
(§3) The standard strain Candida albicans was purchased from the American Type Culture Collection, and the strain number was ATCC10231.
Before the experiment, a small amount of Candida albicans was picked from the SDA medium preserved at 4° C. by inoculation circle, and inoculated into 1 ml YPD (Yeast Extract Peptone Dextrose Medium, the same below) culture medium, under shake cultivation at 30° C., 200 rpm, activated for 16 hours to make the fungus in the late stage of the exponential growth phase. Blood cell counting plate was used to count. The concentration of the broth was adjusted to 1*10^3-5*10^3 CFU/ml with RPMI1640 (Roswell Park Memorial Institute 1640, the same below) culture medium. The Candida albicans monoclone on the SDA plate was picked and inoculated into 1 ml YPD medium, cultured at 35° C., 200 rpm for 16 hours to the late exponential growth phase, 1% of which was then inoculated in fresh medium for 6 hours, centrifuged at 1000×g for 5 mins, washed three times with saline until the supernatant was colorless, while hemocytometer was used to count. The cell concentration was adjusted to 5*10^6/ml. The tail vein injection of 0.1 ml/10 g was carried out to cause a systemic fungal infection in mice. The mice were randomized into groups of 10 each. Since voriconazole was insoluble in vehicle (physiological saline), the mice of the voriconazole group in the test were injected a commercially available voriconazole (Pfizer, product lot number Z467001), that is, sulfobutyl ether-β-cyclodextrin used as a solubilizer, while other groups used physiological saline as a solvent. After establishing a systemic fungal infection model in mice for 2 hours, each administration group was administered with 5 mg/kg (calculated as voriconazole) drug in the tail vein, with the volume for administration of 0.1 ml/10 g. The mice in the model group were administered 0.1 ml/10 g of 0.9% sodium chloride solution, once daily, for 5 consecutive days. The death situation of the mice was inspected and the survival time was recorded. After a total of 7 days of observation, all dead mice were treated with fire using ethanol.

[7] = Solid stability test (25°C, RH 60%, 30 days); type: physicochemical; settings: 25°C±2°C, relative humidity 60%±2%
Procedure: Experimental conditions: 25° C.±2° C., relative humidity 60%±2%
Experimental instrument: Agilent 1260 HPLC; chamber for stability test
Experimental method: each compound of the present disclosure was packaged (the inner packaging material was a penicillin bottle; the outer packaging material was a double-layer aluminum foil bag, and a desiccant was added inside and outside the package), placed in the chamber for stability test, at a temperature of 25° C.±2° C. and a relative humidity of 60%±2%. The degradation situation of the compounds for 30 days was examined. The contents of total impurities before and after 30 days of each compound were compared and the results were as follows: […]

[8] = Pharmacokinetics after single gastrointestinal (gavage) administration in rats (plasma voriconazole); type: in vivo; settings: SD rats, 2.5 mg/kg (calculated as voriconazole)
Procedure: Dosing volume for administration: 10 ml/kg
Solvent medium for administration: except for the positive voriconazole group using CMC-Na, the other groups using normal saline
Route of administration: gavage

[9] = system: Candida albicans ATCC10231; experiment: Systemic fungal infection in mice, administration by gavage, survival; type: in vivo; settings: ICR mice, 5 mg/kg (calculated as voriconazole) once daily for 5 days
Procedure: as §2, §3
Before the experiment, a small amount of Candida albicans was picked from the SDA medium preserved at 4° C. by inoculation circle, inoculated into 1 ml of YPD culture medium, and cultured at 30° C. while being shaken at 200 rpm for 16 hours to make the fungus in the late stage of exponential growth. Blood cell counting plate was used to count, and the concentration of the broth was adjusted to 1*10^3−5*10^3 CFU/ml with RPMI1640 medium. The Candida albicans monoclone on the SDA plate was picked, inoculated into 1 ml YPD medium, cultured at 35° C., 200 rpm for 16 hours to the late exponential growth phase, 1% of which was then inoculated in fresh medium for 6 hours, centrifuged at 1000×g for 5 mins, washed three times with saline until the supernatant was colorless, while hemocytometer was used to count. The cell concentration was adjusted to 5*10^6/ml. The tail vein injection of 0.1 ml/10 g was carried out to cause a systemic fungal infection in mice. The mice were randomized into groups of 10 each. Voriconazole used was in the form of a suspension prepared with CMC-Na (Shanghai Panhong Chemical Technology Co., Ltd.), while other tested drugs were dissolved in saline and sonicated until clarified for administration. After establishing a systemic fungal infection model in mice for 2 hours, each group was administered by gavage with 5 mg/kg (calculated as voriconazole) drug, with the volume for administration of 0.1 ml/10 g. The mice in the model group were administered 0.1 ml/10 g of 0.9% sodium chloride solution, once daily, for 5 consecutive days. The death situation of the mice was inspected and the survival time was recorded. After a total of 7 days of observation, all dead mice were treated with fire using ethanol.

[10] = In vitro metabolic stability in human plasma; type: in vitro ADME; settings: human, plasma; 37°C, compound 10 μM; read-out: Human plasma T1/2
Procedure: The two reaction systems were set up three samples in parallel, while each sample was taken in an amount of 100 μL at 1 min, 2 mins, 5 mins, 15 mins, and 30 mins after the reaction, added to the centrifuge tube containing 400 μL of 0° C. pre-cooled internal standard working fluid and terminated the reaction. The sample was mixed by vortex for 1 min, centrifuged at 10,000×g for 10 mins in a 4° C. pre-cooled high-speed centrifuge. The supernatant was taken for HPLC detection.

SMILES	T1/2 [5]	Content increase of total impurity (25° C., placed for 30 days) [7]	Solubility ([4]; deionized water, 25±2°C)	survival rate of mice, day 1 [9]	survival rate of mice, day 2 [9]	survival rate of mice, day 3 [9]	survival rate of mice, day 4 [9]	survival rate of mice, day 5 [9]	survival rate of mice, day 6 [9]	other results
CC(OC(=O)N(C)c1ncccc1COC(=O)[C@@H](N)CCN)[n+]1cnn(C[C@](O)(c2ccc(F)cc2F)[C@@H](C)c2ncncc2F)c1.[Cl-] (stereo partly shown) [QR16005]										Human intestinal S9 T1/2 [1]: 18.21 ± 2.04 min; Rat plasma T1/2 [2]: 8.25 ± 1.28 min; Rat intestinal S9 T1/2 [3]: 26.52 ± 3.69 min; Solubility [4]: >50 mg/mL
CC(OC(=O)N(C)c1ccccc1COC(=O)[C@@H](N)CCCN)[n+]1cnn(C[C@](O)(c2ccc(F)cc2F)[C@@H](C)c2ncncc2F)c1.[Cl-] (stereo partly shown) [QR16007]	173 ± 73.2 min	0.73%	>50 mg/mL							AUClast [5]: 10278 ± 3225 ng·h/mL; survival rate of mice, day 1 ([6]; day 1): 100%; survival rate of mice, day 2 ([6]; day 2): 100%; survival rate of mice, day 3 ([6]; day 3): 100%; survival rate of mice, day 4 ([6]; day 4): 100%; survival rate of mice, day 5 ([6]; day 5): 100%; survival rate of mice, day 6 ([6]; day 6): 90%
CC(OC(=O)N(C)c1ncccc1COC(=O)[C@@H](N)CCCNC(N)=O)[n+]1cnn(C[C@](O)(c2ccc(F)cc2F)[C@@H](C)c2ncncc2F)c1.[Cl-] (stereo partly shown) [QR16009]	similar	0.71%	>50 mg/mL	100%	80%	80%	70%	70%	70%	AUClast [8]: 7225 ± 1310 ng·h/mL; Cmax [8]: 925 ± 121 ng/mL; T1/2 [8]: 119 ± 52.2 min; survival rate of mice, day 7 ([9]; day 7): 70%
CC(OC(=O)N(C)c1ncccc1CN)[n+]1cnn(C[C@](O)(c2ccc(F)cc2F)[C@@H](C)c2ncncc2F)c1 (stereo partly shown) [QR16022]	similar									half-life at 10 µM ([1]; human, intestinal S9, read-out: Human intestinal S9 T1/2): 43.2 ± 1.03 min; half-life at 10 µM [10]: 26 ± 2.39 min; half-life at 10 µM ([2]; rat, plasma, read-out: Rat plasma T1/2): 29.5 ± 7.85 min; half-life at 10 µM ([3]; rat, intestinal S9, pH 7.4, read-out: Rat intestinal S9 T1/2): 56 ± 10.3 min; solubility at 30 min ([4]; deionized water, 25±2°C): > 50 mg/mL
CNCc1cccnc1N(C)C(=O)OC(C)[n+]1cnn(C[C@](O)(c2ccc(F)cc2F)[C@@H](C)c2ncncc2F)c1 (stereo partly shown) [QR16023]	similar	2.63%		100%	90%	70%	70%	60%	60%	survival rate of mice, day 7 ([9]; day 7, 5 mg/kg): same with the positive drug voriconazole group; solubility at 30 min ([4]; deionized water, 25±2°C): > 50 mg/mL
CC(OC(=O)OCCOCCOP(=O)(O)O)[n+]1cnn(C[C@](O)(c2ccc(F)cc2F)[C@@H](C)c2ncncc2F)c1 (stereo partly shown) [QR16030]		0.94%	>50 mg/mL	100%	90%	80%	70%	60%	50%	AUClast [8]: 4324 ± 1362 ng·h/mL; T1/2 [8]: 152 ± 63 min
CN[C@@H](CSC(=O)OC(C)[n+]1cnn(C[C@](O)(c2ccc(F)cc2F)[C@@H](C)c2ncncc2F)c1)C(=O)O.Cl.[Cl-] (stereo partly shown) [QR16035]		1.21%								AUClast [5]: 8256 ± 1256 ng·h/mL; Human intestinal S9 T1/2 [1]: 29.12 ± 2.09 min; Rat plasma T1/2 [2]: 11.85 ± 3.77 min; Rat intestinal S9 T1/2 [3]: 35.62 ± 8.12 min
